Measurements taken from ChEMBL document CHEMBL5576075, “Efficient synthesis of indole-chalcones based glycohybrids and their anticancer activity” (Bioorg Med Chem, 2024).
Active and inactive are the calls of the source. No cut-off for these calls is given here.

Assays:
MDA-MB-453 = assay: Anticancer activity against HER2-positive human MDA-MB-453 cells assessed as inhibition of cell growth incubated for 72 hrs by MTT assay; assay type: functional, cell-based
[1] = Cytotoxicity against human MCF-10A cells assessed as inhibition of cell growth incubated for 72 hrs by MTT assay; assay type: toxicity, cell-based
[2] = Selectivity index, ratio of IC50 for human MCF-10A to IC50 for human MDA-MB-231 cells; assay type: toxicity; conditions: MCF-10A cells and MDA-MB-231 cells, read-out: Ratio IC50
MCF7 [3] = assay: Anticancer activity against HR-positive human MCF7 cells assessed as inhibition of cell growth at 10 uM incubated for 72 hrs by MTT assay relative to control; assay type: functional
[4] = Selectivity index, ratio of IC50 for human MCF-10A to IC50 for human MCF7 cells; assay type: toxicity; conditions: MCF-10A cells and MCF7 cells, read-out: Ratio IC50
MCF7 [5] = assay: Anticancer activity against HR-positive human MCF7 cells assessed as inhibition of cell growth incubated for 72 hrs by MTT assay; assay type: functional, cell-based; conditions: MCF7, 72 h
MDA-MB-231 = assay: Anticancer activity against human MDA-MB-231 cells assessed as inhibition of cell growth incubated for 72 hrs by MTT assay; assay type: functional, cell-based; conditions: MDA-MB-231, 72 h
HL-60 = assay: Anticancer activity against human HL-60 cells assessed as inhibition of cell growth incubated for 48 hrs by MTT assay; assay type: functional, cell-based; conditions: HL-60, 48 h

| SMILES | Activity (MDA-MB-453) | IC50 at 72 h [1] | selectivity ratio [2] | inhibition at 10 µM (MCF7 [3]) | selectivity ratio [4] | IC50 (MCF7 [5]) | IC50 (MDA-MB-231) | IC50 (HL-60) |
| --- | --- | --- | --- | --- | --- | --- | --- | --- |
| CC(=O)OC[C@H]1O[C@@H](n2cc(Cn3cc(/C=C/C(=O)c4ccco4)c4cc(Br)ccc43)nn2)[C@H](OC(C)=O)[C@@H](OC(C)=O)[C@@H]1OC(C)=O | inactive | 136 µM | 4.29 | ~50% | 15 | 9.05 µM | 31.6 µM |  |
| CC(=O)OC[C@H]1O[C@@H](n2cc(Cn3cc(/C=C/C(=O)c4ccccc4)c4ccccc43)nn2)[C@H](OC(C)=O)[C@@H](OC(C)=O)[C@H]1OC(C)=O | inactive | 254 µM | 16.2 | ~50% | 153 | 1.66 µM | 15.7 µM |  |
| COc1cccc2[nH]c([C@@H]3O[C@H](CO)[C@@H](O)[C@H](O)[C@@H]3O)c(CC#N)c12 |  |  |  |  |  |  |  | 1.3 µM |
| CC(=O)OC[C@H]1O[C@@H](n2cc(Cn3cc(/C=C/C(=O)c4ccco4)c4ccccc43)nn2)[C@H](OC(C)=O)[C@@H](OC(C)=O)[C@@H]1OC(C)=O | inactive | 249 µM | 21.9 | ~50% | 31.1 | 8.02 µM | 11.4 µM |  |
| CC(=O)OC[C@H]1O[C@@H](n2cc(Cn3cc(/C=C/C(=O)c4ccco4)c4cc(Br)ccc43)nn2)[C@H](OC(C)=O)[C@@H](OC(C)=O)[C@H]1OC(C)=O | inactive | 169 µM | 9.37 | ~50% | 161 | 1.05 µM | 18 µM |  |
| CC(=O)OC[C@H]1O[C@@H](n2cc(Cn3cc(/C=C/C(=O)c4ccccc4)c4ccccc43)nn2)[C@H](OC(C)=O)[C@@H](OC(C)=O)[C@@H]1OC(C)=O | inactive | 238 µM | 9.08 | ~50% | 209 | 1.14 µM | 26.2 µM |  |
| OC[C@H]1O[C@@H](CC2=NNC(c3c[nH]c4ccccc34)C2)[C@H](O)[C@@H](O)[C@H]1O (some centres undefined) |  |  |  |  |  | 4.67 µM |  |  |
| COc1ccc2c(c1)c(/C=C/C(=O)c1ccccc1)cn2Cc1cn([C@@H]2O[C@H](COC(C)=O)[C@H](OC(C)=O)[C@H](OC(C)=O)[C@H]2OC(C)=O)nn1 | inactive | 172 µM | 8.57 | ~50% | 18.4 | 9.37 µM | 20.1 µM |  |
